The record followed here is article PMC2666327 (Chembiochem : a European journal of chemical biology, 2008).

This assay addresses T1, Type I Ins(1,4,5)P3 5-phosphatase (Homo sapiens, UniProt Q14642).
T1 sequence (Q14642 1-412 limits assumed): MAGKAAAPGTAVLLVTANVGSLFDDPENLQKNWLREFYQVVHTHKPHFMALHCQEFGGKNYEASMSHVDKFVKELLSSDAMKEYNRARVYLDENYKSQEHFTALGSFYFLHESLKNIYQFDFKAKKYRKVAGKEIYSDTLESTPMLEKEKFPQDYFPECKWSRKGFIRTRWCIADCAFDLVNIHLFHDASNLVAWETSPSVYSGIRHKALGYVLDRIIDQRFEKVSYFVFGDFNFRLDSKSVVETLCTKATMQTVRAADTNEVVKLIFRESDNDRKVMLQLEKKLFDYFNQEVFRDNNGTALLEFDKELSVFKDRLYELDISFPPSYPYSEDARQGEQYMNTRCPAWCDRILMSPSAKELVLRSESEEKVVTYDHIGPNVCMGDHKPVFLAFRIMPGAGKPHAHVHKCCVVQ
Nature of the assay: [3H]Ins. The format is biochemical.

The term IC50 denotes the concentration needed to halve the response being measured. A lower IC50 goes with greater potency.

As for `O=P(O)(O)Oc1ccc(OP(=O)(O)O)c(OP(=O)(O)O)c1OCc1ccccc1` [compound 30, 3-benzyloxybenzene 1,2,4-trisphosphate], inhibition was half-maximal at 68 ± 16 µM (IC50).
